Values quoted from earlier work, collected in patent US7981858B1, “Methods of using zinc containing compounds to improve ocular health” (Alcon, Inc., priority 2004, dated 2011).

Legend:
[1] = about 200 mg dosage of zinc per day
[2] = 80 mg of zinc, versus placebo

For `[Zn]` [zinc], the tolerability [1] is listed as “well tolerated”, the side effects ([1]; anemia attributable to copper deficiency) is listed as “potential side effects such as anemia” and the “retarding macular degeneration changes” value [2] is listed as “significantly better than placebo”.
